Measured values as given in patent US9790178B2, “Pyrrolidinyl urea, thiourea, guanidine and cyanoguanidine compounds as TrkA kinase inhibitors” (Array BioPharma Inc., priority 2012, dated 2017).

Columns and labels:
Test in all cases: KinaseProfiler off-target kinase profiling
Assay type in all cases: biochemical
Conditions in all cases: 10 μM, ATP near Km
TSSK1 = target: T1, TSSK1 (Homo sapiens, UniProt Q9BXA7)
T1 construct: purchased Millipore, Inc. (KinaseProfiler service)
Procedure: (§1) A representative compound of the invention (Example 20) was tested for off-target kinase activity at a concentration of 10 μM by Millipore, Inc. in their KinaseProfiler™ service against all the kinases available in their full kinase panel. The compound was run in duplicate at a concentration of ATP near the Km for each individual kinase according to Millipore's specifications. The results are shown in Table B. Data are reported as percent of control (POC) and are the average of the two replicates.

MARK1 = target: T2, MARK1 (Homo sapiens, UniProt Q9P0L2)
T2 construct: purchased Millipore, Inc. (KinaseProfiler service)
Procedure: as §1

AKT3 = target: T3, AKT3 (Homo sapiens, UniProt Q9Y243)
T3 construct: purchased Millipore, Inc. (KinaseProfiler service)
Procedure: as §1

IRR = target: T4, IRR (Homo sapiens, UniProt P14616)
T4 construct: purchased Millipore, Inc. (KinaseProfiler service)
Procedure: as §1

ULK3 = target: T5, ULK3 (Homo sapiens, UniProt Q6PHR2)
T5 construct: purchased Millipore, Inc. (KinaseProfiler service)
Procedure: as §1

MAPKAP-K3 = target: T6, MAPKAP-K3 (Homo sapiens, UniProt Q16644)
T6 construct: purchased Millipore, Inc. (KinaseProfiler service)
Procedure: as §1

ROCK-II = target: T7, ROCK-II (Homo sapiens, UniProt O75116)
T7 construct: purchased Millipore (KinaseProfiler service)
Procedure: as §1

PTK6 = target: T8, PTK6 (Homo sapiens, UniProt Q13882)
T8 construct: purchased Millipore (KinaseProfiler service)
Procedure: as §1

SRPK1 = target: T9, SRPK1 (Homo sapiens, UniProt Q96SB4)
T9 construct: purchased Millipore, Inc. (KinaseProfiler service)
Procedure: as §1

PKCepsilon = target: T10, PKCepsilon (Homo sapiens, UniProt Q02156)
T10 construct: purchased Millipore, Inc. (KinaseProfiler service)
Procedure: as §1

PKCtheta = target: T11, PKCtheta (Homo sapiens, UniProt Q04759)
T11 construct: purchased Millipore (KinaseProfiler service)
Procedure: as §1

ROCK-I = target: T12, ROCK-I (Homo sapiens, UniProt Q13464)
T12 construct: purchased Millipore (KinaseProfiler service)
Procedure: as §1

Syk = target: T13, Syk (Homo sapiens, UniProt P43405)
T13 construct: purchased Millipore, Inc. (KinaseProfiler service)
Procedure: as §1

c-RAF = system: c-RAF
Procedure: as §1

GRK6 = target: T14, GRK6 (Homo sapiens, UniProt P43250)
T14 construct: purchased Millipore, Inc. (KinaseProfiler service)
Procedure: as §1

GRK7 = target: T15, GRK7 (Homo sapiens, UniProt Q8WTQ7)
T15 construct: purchased Millipore, Inc. (KinaseProfiler service)
Procedure: as §1

Tie2 = target: T16, Tie2 (Homo sapiens, UniProt Q02763)
T16 construct: purchased Millipore, Inc. (KinaseProfiler service)
Procedure: as §1

PRK2 = target: T17, PRK2 (Homo sapiens, UniProt Q16513)
T17 construct: purchased Millipore (KinaseProfiler service)
Procedure: as §1

LOK = target: T18, LOK (Homo sapiens, UniProt O94804)
T18 construct: purchased Millipore, Inc. (KinaseProfiler service)
Procedure: as §1

PhKgamma2 = target: T19, PhKgamma2 (Homo sapiens, UniProt P15735)
T19 construct: purchased Millipore, Inc. (KinaseProfiler service)
Procedure: as §1

MEK1 = target: T20, MEK1 (Homo sapiens, UniProt Q02750)
T20 construct: purchased Millipore, Inc. (KinaseProfiler service)
Procedure: as §1

MLK1 = target: T21, MLK1 (Homo sapiens, UniProt P80192)
T21 construct: purchased Millipore, Inc. (KinaseProfiler service)
Procedure: as §1

Ros = target: T22, Ros (Homo sapiens, UniProt P08922)
T22 construct: purchased Millipore (KinaseProfiler service)
Procedure: as §1

GSK3alpha = target: T23, GSK3alpha (Homo sapiens, UniProt P49840)
T23 construct: purchased Millipore, Inc. (KinaseProfiler service)
Procedure: as §1

PKCeta = target: T24, PKCeta (Homo sapiens, UniProt P24723)
T24 construct: purchased Millipore, Inc. (KinaseProfiler service)
Procedure: as §1

WNK2 = target: T25, WNK2 (Homo sapiens, UniProt Q9Y3S1)
T25 construct: purchased Millipore, Inc. (KinaseProfiler service)
Procedure: as §1

EphB4 = target: T26, EphB4 (Homo sapiens, UniProt P54760)
T26 construct: purchased Millipore, Inc. (KinaseProfiler service)
Procedure: as §1

CK1gamma2 = target: T27, CK1gamma2 (Homo sapiens, UniProt P78368)
T27 construct: purchased Millipore, Inc. (KinaseProfiler service)
Procedure: as §1

Hck = target: T28, Hck (Homo sapiens, UniProt P08631)
T28 construct: purchased Millipore, Inc. (KinaseProfiler service)
Procedure: as §1

Ret = target: T29, Ret (Homo sapiens, UniProt P07949)
T29 construct: purchased Millipore (KinaseProfiler service)
Procedure: as §1

CDK9/cyclinT1 = target: T30, CDK9/cyclinT1 (Homo sapiens, UniProt P50750)
T30 construct: purchased Millipore, Inc. (KinaseProfiler service)
Procedure: as §1

FGFR1 = target: T31, FGFR1 (Homo sapiens, UniProt P11362)
T31 construct: purchased Millipore, Inc. (KinaseProfiler service)
Procedure: as §1

CDK1/cyclinB = target: T32, CDK1/cyclinB (Homo sapiens, UniProt P06493)
T32 construct: purchased Millipore, Inc. (KinaseProfiler service)
Procedure: as §1

MYLK = target: T33, MYLK (Homo sapiens, UniProt Q15746)
T33 construct: purchased Millipore, Inc. (KinaseProfiler service)
Procedure: as §1

PDK1 = target: T34, PDK1 (Homo sapiens, UniProt O15530)
T34 construct: purchased Millipore, Inc. (KinaseProfiler service)
Procedure: as §1

Ron = target: T35, Ron (Homo sapiens, UniProt Q04912)
T35 construct: purchased Millipore (KinaseProfiler service)
Procedure: as §1

EphA2 = target: T36, EphA2 (Homo sapiens, UniProt P29317)
T36 construct: purchased Millipore, Inc. (KinaseProfiler service)
Procedure: as §1

AKT2 = target: T37, AKT2 (Homo sapiens, UniProt P31751)
T37 construct: purchased Millipore, Inc. (KinaseProfiler service)
Procedure: as §1

EphB2 = target: T38, EphB2 (Homo sapiens, UniProt P29323)
T38 construct: purchased Millipore, Inc. (KinaseProfiler service)
Procedure: as §1

CAMK1d = target: T39, CAMK1d (Homo sapiens, UniProt Q8IU85)
T39 construct: purchased Millipore, Inc. (KinaseProfiler service)
Procedure: as §1

SGK1 = target: T40, SGK1 (Homo sapiens, UniProt O00141, S422D)
T40 construct: purchased Millipore, Inc. (KinaseProfiler service)
Procedure: as §1

T7 sequence (O75116 whole entry): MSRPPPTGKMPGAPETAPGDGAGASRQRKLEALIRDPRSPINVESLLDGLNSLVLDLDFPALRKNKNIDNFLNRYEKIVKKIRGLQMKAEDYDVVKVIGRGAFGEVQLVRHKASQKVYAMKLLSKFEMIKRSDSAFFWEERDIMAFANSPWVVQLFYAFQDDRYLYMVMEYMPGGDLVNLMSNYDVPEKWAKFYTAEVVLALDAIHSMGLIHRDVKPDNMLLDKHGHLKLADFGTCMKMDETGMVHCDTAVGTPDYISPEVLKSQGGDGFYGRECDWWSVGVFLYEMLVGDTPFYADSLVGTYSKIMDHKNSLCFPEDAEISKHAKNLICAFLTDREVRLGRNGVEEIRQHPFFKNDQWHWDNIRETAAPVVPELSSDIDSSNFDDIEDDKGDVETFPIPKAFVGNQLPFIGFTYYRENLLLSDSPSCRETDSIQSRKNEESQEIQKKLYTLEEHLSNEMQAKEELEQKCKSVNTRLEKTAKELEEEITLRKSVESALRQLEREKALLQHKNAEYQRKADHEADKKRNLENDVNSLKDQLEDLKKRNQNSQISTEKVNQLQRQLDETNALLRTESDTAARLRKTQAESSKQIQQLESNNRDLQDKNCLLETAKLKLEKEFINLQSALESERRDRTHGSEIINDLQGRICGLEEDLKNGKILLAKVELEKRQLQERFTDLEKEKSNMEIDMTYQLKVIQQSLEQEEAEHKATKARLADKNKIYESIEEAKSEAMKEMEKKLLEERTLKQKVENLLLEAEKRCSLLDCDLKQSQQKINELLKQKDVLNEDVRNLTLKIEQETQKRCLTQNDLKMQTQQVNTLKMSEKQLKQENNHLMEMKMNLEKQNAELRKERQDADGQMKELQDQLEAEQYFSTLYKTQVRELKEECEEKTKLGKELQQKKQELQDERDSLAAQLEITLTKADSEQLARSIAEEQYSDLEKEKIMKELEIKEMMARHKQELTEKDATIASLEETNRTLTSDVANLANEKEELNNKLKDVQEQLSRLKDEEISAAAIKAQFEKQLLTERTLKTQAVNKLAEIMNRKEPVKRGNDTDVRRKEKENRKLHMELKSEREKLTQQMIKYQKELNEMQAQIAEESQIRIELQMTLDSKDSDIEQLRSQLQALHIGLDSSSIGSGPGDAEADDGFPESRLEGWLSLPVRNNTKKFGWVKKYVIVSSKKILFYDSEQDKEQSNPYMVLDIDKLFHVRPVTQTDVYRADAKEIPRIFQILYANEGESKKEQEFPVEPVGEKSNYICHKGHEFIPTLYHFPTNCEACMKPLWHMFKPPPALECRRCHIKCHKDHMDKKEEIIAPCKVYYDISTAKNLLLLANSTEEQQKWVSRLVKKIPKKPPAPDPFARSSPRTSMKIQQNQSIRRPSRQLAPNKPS
T5 sequence (Q6PHR2 whole entry): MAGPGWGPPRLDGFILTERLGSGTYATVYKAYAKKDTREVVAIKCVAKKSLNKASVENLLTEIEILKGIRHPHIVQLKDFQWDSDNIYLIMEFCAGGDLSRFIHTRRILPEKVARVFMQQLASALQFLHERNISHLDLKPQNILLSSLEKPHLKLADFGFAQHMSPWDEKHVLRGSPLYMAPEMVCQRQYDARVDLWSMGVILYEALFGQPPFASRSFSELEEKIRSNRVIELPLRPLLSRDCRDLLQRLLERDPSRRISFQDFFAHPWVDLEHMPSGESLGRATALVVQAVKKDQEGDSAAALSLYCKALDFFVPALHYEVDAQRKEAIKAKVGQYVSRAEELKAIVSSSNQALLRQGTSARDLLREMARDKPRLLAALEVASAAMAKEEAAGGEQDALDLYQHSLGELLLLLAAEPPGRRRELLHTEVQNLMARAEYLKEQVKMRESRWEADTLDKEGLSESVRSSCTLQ
T23 sequence (P49840 whole entry): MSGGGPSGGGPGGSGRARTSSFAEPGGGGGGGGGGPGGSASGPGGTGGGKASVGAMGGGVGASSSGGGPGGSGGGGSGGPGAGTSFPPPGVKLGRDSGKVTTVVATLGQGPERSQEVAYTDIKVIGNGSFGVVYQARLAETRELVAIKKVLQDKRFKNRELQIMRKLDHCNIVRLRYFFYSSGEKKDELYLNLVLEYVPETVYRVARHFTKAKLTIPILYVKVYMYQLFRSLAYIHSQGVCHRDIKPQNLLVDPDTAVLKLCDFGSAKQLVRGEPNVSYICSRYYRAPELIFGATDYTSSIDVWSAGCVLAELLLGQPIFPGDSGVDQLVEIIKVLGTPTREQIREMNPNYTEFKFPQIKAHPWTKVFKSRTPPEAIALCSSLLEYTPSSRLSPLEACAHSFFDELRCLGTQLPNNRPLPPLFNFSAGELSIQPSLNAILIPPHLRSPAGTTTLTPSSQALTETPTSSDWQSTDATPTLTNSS
T2 sequence (Q9P0L2 whole entry): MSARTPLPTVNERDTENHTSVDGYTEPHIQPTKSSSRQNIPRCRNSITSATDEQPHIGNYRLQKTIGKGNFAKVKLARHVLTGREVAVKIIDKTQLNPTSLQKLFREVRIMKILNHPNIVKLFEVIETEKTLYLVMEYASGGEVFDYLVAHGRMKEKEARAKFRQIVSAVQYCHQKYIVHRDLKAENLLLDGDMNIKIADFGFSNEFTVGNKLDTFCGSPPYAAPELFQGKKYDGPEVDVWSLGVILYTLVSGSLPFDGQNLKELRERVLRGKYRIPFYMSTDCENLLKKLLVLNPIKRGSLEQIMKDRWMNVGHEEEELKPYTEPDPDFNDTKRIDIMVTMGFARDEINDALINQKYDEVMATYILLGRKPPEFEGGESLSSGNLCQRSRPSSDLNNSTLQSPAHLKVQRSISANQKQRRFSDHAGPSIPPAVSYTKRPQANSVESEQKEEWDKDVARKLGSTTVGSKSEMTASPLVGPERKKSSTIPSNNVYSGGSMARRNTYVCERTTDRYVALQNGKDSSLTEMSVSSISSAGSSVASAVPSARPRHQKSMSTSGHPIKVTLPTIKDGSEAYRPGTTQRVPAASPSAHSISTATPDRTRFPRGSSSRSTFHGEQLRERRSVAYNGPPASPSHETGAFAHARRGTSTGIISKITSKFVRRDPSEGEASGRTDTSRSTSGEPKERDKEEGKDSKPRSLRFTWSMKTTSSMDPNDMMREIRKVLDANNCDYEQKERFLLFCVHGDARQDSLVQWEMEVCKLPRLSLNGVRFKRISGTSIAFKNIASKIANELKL
T29 sequence (P07949 29-1114): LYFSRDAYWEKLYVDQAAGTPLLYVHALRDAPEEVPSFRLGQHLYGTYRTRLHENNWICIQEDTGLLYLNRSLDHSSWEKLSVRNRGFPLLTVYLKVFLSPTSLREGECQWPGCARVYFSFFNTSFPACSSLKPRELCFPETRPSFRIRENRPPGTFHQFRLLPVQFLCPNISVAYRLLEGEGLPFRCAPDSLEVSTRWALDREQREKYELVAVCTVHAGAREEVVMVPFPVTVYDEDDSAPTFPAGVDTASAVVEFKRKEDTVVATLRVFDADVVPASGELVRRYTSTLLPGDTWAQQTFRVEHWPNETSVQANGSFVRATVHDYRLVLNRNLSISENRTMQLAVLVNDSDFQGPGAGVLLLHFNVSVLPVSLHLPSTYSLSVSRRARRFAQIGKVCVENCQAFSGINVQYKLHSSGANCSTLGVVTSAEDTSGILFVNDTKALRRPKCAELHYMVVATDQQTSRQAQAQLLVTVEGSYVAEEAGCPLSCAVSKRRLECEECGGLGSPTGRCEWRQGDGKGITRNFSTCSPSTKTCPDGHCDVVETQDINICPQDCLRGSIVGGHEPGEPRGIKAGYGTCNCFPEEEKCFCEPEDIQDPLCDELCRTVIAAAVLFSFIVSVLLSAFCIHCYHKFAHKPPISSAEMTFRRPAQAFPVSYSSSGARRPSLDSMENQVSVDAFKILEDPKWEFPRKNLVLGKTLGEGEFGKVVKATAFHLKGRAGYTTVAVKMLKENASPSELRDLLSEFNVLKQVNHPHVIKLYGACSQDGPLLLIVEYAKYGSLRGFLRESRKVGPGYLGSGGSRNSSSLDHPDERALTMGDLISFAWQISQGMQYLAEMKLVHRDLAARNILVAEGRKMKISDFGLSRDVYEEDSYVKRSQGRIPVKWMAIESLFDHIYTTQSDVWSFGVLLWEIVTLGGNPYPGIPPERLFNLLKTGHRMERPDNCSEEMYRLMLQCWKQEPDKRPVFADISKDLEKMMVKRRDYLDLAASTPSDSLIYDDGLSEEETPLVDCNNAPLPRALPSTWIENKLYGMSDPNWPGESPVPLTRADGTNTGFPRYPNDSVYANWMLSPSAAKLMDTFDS
T32 sequence (P06493 whole entry): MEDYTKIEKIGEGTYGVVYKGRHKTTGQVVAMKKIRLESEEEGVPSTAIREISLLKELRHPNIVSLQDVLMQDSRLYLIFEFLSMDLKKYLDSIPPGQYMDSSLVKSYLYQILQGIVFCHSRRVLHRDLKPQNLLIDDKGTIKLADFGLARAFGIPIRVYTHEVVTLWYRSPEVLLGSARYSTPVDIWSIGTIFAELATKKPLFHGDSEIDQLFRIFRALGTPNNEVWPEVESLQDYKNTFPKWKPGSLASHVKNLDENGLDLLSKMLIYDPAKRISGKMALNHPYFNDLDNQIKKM
T32 sequence (P14635 whole entry partner): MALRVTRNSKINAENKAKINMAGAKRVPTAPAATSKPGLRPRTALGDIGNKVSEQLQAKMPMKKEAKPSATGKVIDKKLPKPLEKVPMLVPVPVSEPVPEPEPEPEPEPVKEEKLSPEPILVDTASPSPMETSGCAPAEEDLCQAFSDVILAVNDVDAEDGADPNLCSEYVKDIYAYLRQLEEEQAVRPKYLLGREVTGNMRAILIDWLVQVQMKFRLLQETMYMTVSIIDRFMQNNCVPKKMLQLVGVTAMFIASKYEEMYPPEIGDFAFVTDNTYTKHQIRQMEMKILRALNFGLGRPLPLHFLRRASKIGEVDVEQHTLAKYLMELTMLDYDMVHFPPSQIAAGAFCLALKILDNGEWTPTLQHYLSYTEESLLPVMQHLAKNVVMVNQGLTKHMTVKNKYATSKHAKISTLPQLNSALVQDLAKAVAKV

For `COCCN1C[C@@H](NC(=O)Nc2c(-c3ccccc3)nc3c(C)nccn23)[C@H](c2ccc(F)c(F)c2)C1` [Example 20, 1-((3S,4R)-4-(3,4-difluorophenyl)-1-(2-methoxyethyl)pyrrolidin-3-yl)-3-(8-methyl-2-phenylimidazo[1,2-a]pyrazin-3-yl)urea], the “Avg. POC” value (TSSK1) was 107 POC, the “Avg. POC” value (MARK1) was 103.5 POC and the “Avg. POC” value (AKT3) was 104 POC. For the same compound, the “Avg. POC” value (IRR) was 96 POC, the “Avg. POC” value (ULK3) was 108 POC and the “Avg. POC” value (MAPKAP-K3) was 105 POC. The “Avg. POC” value (ROCK-II) was 122 POC, the “Avg. POC” value (PTK6) was 114 POC and the “Avg. POC” value (SRPK1) was 113.5 POC. The “Avg. POC” value (PKCepsilon) was 107.5 POC, the “Avg. POC” value (PKCtheta) was 111.5 POC and the “Avg. POC” value (ROCK-I) was 95.5 POC. The “Avg. POC” value (Syk) was 99.5 POC, the “Avg. POC” value (c-RAF) was 118.5 POC and the “Avg. POC” value (GRK6) was 110 POC. For the same compound, the “Avg. POC” value (GRK7) was 96.5 POC, the “Avg. POC” value (Tie2) was 119 POC and the “Avg. POC” value (PRK2) was 104 POC. The “Avg. POC” value (LOK) was 108.5 POC, the “Avg. POC” value (PhKgamma2) was 98.5 POC and the “Avg. POC” value (MEK1) was 111 POC. The “Avg. POC” value (MLK1) was 100 POC, the “Avg. POC” value (Ros) was 95.5 POC and the “Avg. POC” value (GSK3alpha) was 109.5 POC. For the same compound, the “Avg. POC” value (PKCeta) was 105.5 POC, the “Avg. POC” value (WNK2) was 120 POC and the “Avg. POC” value (EphB4) was 102 POC. For the same compound, the “Avg. POC” value (CK1gamma2) was 110 POC, the “Avg. POC” value (Hck) was 110 POC and the “Avg. POC” value (Ret) was 97.5 POC. The “Avg. POC” value (CDK9/cyclinT1) was 109.5 POC, the “Avg. POC” value (FGFR1) was 102 POC and the “Avg. POC” value (CDK1/cyclinB) was 99 POC. For the same compound, the “Avg. POC” value (MYLK) was 110 POC, the “Avg. POC” value (PDK1) was 119.5 POC and the “Avg. POC” value (Ron) was 100 POC. For the same compound, the “Avg. POC” value (EphA2) was 107.5 POC, the “Avg. POC” value (AKT2) was 131 POC and the “Avg. POC” value (EphB2) was 104 POC. For the same compound, the “Avg. POC” value (CAMK1d) was 107.5 POC and the “Avg. POC” value (SGK1) was 119 POC.
